Like-named read-outs stand apart in the source and are kept apart here.
Assays:
[1] = target: T1, hTRPA1 (Homo sapiens, UniProt O75762, K186N); test: High throughput Ca2+ fluorescence (Fluo4) assay, AITC stimulation; format: cell-based
T1 construct: expressed in transfected cells; host or cells: HEK293/TREx (Invitrogen), induced with tetracycline
Method in brief: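 Tetracycline-induced HEK293/TREx cells loaded with 1 μM Fluo4/AM for 60 min at room temperature. Compound added for 2 min after a 4-frame baseline, then AITC; fluorescence followed ~3 min.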

[2] = target: hTRPV4 (Homo sapiens, UniProt Q9HBA0); test: hTRPV4 patch clamp selectivity; format: cell-based; conditions: Table 2
[3] = target: T1, hTRPA1; test: TRPA1 patch clamp (perforated patch, AITC-activated current); format: cell-based
Method in brief: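 HEK293 TREx cells expressing the channel were recorded by amphotericin perforated patch at −40 mV holding, with 400 ms ramps from −120 to +100 mV every 5 s. Current was activated with 5 μM AITC in pH 7.4 external solution, and block of inward and outward current was measured at −80 and +80 mV with AITC still present.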

[4] = target: hERG (Homo sapiens, UniProt Q12809); test: hERG patch clamp (Qpatch) selectivity; conditions: for selectivity ratio: human, selective for TRPA1 over hERG
[5] = target: hNaV1.2 (Homo sapiens, UniProt Q99250); test: hNaV1.2 patch clamp (Qpatch) selectivity; format: cell-based
[6] = target: T2, hTRPV3 (Homo sapiens, UniProt Q8NET8); test: hTRPV3 patch clamp selectivity; format: cell-based; conditions: Table 2
T2 sequence (Q8NET8 1-790): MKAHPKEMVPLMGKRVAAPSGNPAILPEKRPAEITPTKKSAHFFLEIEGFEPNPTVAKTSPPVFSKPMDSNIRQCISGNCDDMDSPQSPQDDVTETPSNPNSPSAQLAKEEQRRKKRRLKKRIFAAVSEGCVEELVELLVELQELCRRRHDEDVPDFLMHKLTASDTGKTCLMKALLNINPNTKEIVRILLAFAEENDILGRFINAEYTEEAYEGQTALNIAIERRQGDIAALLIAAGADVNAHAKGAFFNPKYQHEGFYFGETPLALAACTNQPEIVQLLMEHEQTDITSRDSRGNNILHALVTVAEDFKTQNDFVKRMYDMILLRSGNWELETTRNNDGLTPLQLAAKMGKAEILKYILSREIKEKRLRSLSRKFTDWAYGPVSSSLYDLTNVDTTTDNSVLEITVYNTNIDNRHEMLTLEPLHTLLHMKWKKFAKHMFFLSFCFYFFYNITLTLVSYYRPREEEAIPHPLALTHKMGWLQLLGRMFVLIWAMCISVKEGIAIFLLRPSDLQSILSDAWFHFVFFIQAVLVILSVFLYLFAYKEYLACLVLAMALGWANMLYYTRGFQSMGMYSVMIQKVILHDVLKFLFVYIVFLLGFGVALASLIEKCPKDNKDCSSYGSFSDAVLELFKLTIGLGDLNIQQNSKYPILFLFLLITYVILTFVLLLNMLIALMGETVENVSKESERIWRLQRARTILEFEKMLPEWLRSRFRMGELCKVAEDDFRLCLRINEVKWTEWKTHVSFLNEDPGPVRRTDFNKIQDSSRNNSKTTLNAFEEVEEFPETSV

[7] = Table 2, read-out: hTRPA1 Fluor IC50
[8] = Table 2, inward current, read-out: hTRPA1 Patch Inwd IC50
[9] = Table 2, read-out: hNaV1.2 IC50

hNaV1.2, sequence (Q99250 whole entry): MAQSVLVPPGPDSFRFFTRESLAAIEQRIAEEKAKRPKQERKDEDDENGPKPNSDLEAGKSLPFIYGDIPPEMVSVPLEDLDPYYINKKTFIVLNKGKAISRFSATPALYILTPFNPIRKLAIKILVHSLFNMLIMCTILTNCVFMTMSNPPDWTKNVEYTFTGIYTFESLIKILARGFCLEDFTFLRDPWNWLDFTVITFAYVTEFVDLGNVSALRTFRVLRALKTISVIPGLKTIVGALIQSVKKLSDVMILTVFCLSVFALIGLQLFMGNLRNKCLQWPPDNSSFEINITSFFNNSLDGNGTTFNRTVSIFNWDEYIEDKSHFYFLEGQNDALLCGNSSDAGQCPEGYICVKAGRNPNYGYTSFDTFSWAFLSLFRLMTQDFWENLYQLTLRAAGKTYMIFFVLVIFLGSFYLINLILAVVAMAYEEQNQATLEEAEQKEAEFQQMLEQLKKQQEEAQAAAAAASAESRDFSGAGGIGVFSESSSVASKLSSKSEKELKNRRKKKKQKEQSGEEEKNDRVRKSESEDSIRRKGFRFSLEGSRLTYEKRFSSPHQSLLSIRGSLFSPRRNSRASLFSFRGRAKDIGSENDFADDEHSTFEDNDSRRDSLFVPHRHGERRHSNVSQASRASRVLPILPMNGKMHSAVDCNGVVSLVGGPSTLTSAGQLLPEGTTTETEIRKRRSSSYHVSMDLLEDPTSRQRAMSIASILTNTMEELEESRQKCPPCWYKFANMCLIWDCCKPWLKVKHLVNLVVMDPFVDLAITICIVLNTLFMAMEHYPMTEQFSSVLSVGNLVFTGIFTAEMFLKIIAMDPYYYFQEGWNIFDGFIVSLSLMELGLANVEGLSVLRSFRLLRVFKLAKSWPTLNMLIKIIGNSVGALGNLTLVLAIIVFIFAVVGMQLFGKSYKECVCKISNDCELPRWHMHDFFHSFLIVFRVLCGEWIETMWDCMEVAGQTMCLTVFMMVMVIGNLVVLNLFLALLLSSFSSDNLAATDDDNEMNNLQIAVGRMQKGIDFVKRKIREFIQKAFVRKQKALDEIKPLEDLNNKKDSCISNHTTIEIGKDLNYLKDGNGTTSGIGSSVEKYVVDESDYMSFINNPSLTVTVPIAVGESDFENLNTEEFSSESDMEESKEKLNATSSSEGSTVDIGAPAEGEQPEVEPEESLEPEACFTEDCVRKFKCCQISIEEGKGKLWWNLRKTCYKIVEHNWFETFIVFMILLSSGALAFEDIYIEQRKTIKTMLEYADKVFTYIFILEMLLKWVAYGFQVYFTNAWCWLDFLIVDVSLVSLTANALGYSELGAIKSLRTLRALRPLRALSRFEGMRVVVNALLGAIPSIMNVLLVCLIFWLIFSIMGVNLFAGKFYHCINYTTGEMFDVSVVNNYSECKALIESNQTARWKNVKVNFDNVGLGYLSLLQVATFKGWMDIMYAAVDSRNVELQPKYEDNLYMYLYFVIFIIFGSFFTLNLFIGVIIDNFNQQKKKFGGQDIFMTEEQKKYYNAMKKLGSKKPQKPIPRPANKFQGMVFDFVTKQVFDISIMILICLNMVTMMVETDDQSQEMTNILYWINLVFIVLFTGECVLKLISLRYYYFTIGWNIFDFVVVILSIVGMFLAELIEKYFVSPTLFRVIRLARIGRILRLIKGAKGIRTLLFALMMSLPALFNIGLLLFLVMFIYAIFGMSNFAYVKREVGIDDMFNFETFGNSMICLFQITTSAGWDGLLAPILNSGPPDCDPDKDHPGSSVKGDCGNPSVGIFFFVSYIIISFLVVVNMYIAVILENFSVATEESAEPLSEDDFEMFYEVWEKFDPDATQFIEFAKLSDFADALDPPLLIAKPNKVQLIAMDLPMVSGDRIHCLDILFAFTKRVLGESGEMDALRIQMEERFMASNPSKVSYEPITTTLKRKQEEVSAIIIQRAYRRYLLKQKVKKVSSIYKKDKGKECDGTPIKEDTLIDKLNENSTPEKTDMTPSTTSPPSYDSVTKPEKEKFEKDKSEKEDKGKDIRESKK
hERG, sequence (Q12809 whole entry): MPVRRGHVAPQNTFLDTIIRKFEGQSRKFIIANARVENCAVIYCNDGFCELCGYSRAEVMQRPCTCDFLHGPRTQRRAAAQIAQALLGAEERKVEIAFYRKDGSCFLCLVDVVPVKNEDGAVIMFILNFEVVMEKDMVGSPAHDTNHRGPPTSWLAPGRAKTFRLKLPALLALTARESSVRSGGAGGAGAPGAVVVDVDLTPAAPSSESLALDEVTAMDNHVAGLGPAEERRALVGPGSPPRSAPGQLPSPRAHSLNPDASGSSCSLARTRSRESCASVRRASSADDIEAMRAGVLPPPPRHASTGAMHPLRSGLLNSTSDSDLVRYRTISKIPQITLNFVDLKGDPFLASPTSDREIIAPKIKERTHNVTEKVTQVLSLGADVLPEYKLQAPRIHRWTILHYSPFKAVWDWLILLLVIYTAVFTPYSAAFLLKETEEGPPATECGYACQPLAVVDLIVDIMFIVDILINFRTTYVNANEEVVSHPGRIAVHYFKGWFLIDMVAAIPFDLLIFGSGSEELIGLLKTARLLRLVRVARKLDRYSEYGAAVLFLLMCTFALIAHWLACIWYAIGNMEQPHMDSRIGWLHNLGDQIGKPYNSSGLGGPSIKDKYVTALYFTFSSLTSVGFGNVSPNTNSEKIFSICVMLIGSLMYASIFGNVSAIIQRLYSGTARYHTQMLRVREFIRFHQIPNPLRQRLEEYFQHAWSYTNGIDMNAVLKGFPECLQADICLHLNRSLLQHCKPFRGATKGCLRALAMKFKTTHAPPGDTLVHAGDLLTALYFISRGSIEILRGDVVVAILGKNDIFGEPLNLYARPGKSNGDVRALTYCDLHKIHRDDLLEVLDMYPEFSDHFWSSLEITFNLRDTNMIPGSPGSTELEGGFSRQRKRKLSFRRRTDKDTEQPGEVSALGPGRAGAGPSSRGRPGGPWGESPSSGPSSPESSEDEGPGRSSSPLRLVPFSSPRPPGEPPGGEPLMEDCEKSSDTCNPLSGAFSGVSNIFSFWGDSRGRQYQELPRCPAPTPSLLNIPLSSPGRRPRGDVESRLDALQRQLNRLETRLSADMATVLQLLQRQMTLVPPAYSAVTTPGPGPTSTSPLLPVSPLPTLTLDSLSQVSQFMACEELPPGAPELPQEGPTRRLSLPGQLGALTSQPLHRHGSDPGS
T1 sequence (O75762 whole entry K186N): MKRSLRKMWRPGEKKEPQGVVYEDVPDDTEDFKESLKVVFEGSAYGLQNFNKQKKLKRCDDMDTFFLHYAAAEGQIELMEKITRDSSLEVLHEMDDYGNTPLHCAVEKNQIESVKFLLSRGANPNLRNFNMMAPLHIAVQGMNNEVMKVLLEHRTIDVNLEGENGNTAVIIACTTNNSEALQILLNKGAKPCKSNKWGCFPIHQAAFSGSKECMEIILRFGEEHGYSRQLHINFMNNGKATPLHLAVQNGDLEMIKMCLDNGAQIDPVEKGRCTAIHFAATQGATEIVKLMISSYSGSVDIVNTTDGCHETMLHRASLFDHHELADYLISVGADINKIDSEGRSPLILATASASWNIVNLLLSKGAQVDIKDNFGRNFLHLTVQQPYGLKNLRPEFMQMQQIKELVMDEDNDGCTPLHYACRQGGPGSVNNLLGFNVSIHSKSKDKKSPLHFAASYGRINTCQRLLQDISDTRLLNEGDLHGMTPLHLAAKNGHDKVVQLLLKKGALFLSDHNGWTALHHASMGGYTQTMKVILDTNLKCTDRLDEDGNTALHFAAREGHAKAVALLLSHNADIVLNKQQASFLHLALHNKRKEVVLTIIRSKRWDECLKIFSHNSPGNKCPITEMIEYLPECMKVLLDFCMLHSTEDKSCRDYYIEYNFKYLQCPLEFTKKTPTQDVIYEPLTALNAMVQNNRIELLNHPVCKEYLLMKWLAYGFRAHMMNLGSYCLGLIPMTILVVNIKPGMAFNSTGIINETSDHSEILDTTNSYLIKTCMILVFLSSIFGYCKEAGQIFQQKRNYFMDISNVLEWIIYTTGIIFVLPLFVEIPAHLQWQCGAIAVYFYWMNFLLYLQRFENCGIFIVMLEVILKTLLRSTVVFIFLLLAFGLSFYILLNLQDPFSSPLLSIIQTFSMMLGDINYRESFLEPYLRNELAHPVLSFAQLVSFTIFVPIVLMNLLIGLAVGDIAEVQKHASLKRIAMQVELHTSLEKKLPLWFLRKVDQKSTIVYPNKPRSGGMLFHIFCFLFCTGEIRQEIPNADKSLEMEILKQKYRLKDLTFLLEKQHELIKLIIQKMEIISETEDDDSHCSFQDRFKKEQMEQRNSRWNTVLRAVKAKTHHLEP
hTRPV4, sequence (Q9HBA0 whole entry): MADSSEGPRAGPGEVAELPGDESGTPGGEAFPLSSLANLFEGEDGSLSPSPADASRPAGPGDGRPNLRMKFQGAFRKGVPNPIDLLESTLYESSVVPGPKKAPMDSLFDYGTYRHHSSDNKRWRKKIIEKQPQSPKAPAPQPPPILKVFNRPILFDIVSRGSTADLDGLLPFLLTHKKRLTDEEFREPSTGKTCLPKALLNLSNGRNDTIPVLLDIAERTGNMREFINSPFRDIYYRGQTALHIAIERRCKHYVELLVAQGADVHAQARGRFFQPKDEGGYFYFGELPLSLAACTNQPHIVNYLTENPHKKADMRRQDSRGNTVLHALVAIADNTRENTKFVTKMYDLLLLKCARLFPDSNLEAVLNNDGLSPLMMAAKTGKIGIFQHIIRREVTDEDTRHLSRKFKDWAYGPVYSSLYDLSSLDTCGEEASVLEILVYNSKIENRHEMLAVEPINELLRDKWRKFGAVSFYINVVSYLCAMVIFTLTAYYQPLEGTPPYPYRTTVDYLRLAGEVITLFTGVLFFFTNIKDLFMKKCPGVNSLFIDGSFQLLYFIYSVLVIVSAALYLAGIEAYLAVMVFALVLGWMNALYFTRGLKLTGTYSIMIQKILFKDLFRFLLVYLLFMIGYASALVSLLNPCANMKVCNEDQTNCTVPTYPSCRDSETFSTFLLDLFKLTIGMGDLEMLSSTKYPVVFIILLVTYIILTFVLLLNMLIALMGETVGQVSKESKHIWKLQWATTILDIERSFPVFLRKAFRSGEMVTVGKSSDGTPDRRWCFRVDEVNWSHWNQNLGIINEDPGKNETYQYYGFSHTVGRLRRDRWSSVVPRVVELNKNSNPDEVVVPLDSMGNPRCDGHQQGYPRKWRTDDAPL

SMILES | IC50 [1, 7] [µM] | IC50 [2] [µM] | selective for TRPA1 over TRPV4 [2] [fold] | IC50 [3, 8] [µM] | IC50 ([4]; hERG IC50 (nM), Table 2) [nM] | selectivity ratio ([4]; Table 2) | selective for TRPA1 over NaV1.2 ([5]; Table 2) [fold] | IC50 [5, 9] [µM] | selective for TRPA1 over NaV1.2 ([5]; Table 1) [fold] | IC50 ([5]; Table 1, read-out: hNaV1.2 Qpatch IC50) [µM] | IC50 ([1]; Table 1, read-out: hTRPA1 Fluo4 IC50) [µM] | IC50 ([3]; Table 1, read-out: hTRPA1 Patch IC50) [µM] | IC50 ([4]; hERG Qpatch IC50 (nM), Table 1) [nM] | selectivity ratio ([4]; Table 1) | selective for TRPA1 over TRPV3 [6] [fold] | IC50 ([6]; read-out: hTRPV3 P1 inward IC50) [µM]
Cn1c(=O)c2c(ncn2CC(=O)Nc2ccc3c(c2)OC2(CCCCC2)O3)n(C)c1=O [Compound 347] | ≤ 1 | > 10 | ≥ 15 | ≤ 1 | ≥ 20000 | ≥ 45 | – | – | – | – | – | – | – | – | – | –
CCC(C)c1ccc(NC(=O)Cn2cnc3c2c(=O)n(C)c(=O)n3C)cc1 (stereo not shown) [Compound 215] | ≤ 5 | – | – | ≤ 1 | ≥ 10000 | ≥ 25 | ≥ 55 | ≥ 30 | – | – | – | – | – | – | – | –
CCOC(=O)C1=C(c2ccccc2)NC(=S)NC1c1cc(O)ccc1Br (stereo not shown) [drawing 49] | – | – | – | – | – | – | – | – | ≥ 40 | ≥ 30 | ≤ 1 | ≤ 1 | ≥ 20000 | ≥ 30 | – | –
Cn1c(=O)c2c(ncn2CC(=O)Nc2nc3ccccc3s2)n(C)c1=O [Compound 239] | ≤ 5 | – | – | ≤ 5 | – | – | – | – | – | – | – | – | – | – | ≥ 4 | ≤ 10
Cn1c(=O)c2c(ncn2CC(=O)Nc2nc(-c3ccc(Br)cc3)cs2)n(C)c1=O [Compound 232] | ≤ 1 | – | – | ≤ 0.5 | ≥ 30000 | ≥ 75 | ≥ 75 | ≥ 30 | – | – | – | – | – | – | – | –

— patent publication US7671061B2, “Methods and compositions for treating pain” (Hydra Biosciences, Inc., priority 2005, dated 2010)
